Results from US3931217A, “2,3-Dihydro-5-alkoxy-5-phenyl-5H-imidazo[2,1-a]isoindoles” (Hoffmann-La Roche Inc., priority 1974, dated 1976).

Columns and labels:
LD50 of Example 21 = conditions: in vivo, iv; species not given
mice = test: direct-acting stimulant / psychostimulant effect in animals such as mice; format: in vivo; conditions: similarly tested; result in words
Description: As has been indicated hereinabove the novel end products of this invention, i.e., the compounds of the formula I and their pharmaceutically acceptable acid addition salts and the compounds of formula II-d and their pharmaceutically acceptable acid addition salts, are useful as psychostimulants. When administered, for example, orally, to animals such as mice they produce a direct-acting stimulant effect of long duration in single doses in amounts ranging from 0.03 mg/kg to 50 mg/kg. […] Exp. Path. and Pharm., Vol. 140, page 237). The compounds of this invention have psychostimulant effects qualitatively similar in many respects to those of imipramine and amphetamine which are well known for their therapeutic uses and properties.

[1] = acute toxicity (LD50) in mice; conditions: mouse, in vivo
dogs = test: blood pressure in dogs; format: in vivo; conditions: 4 mg/kg i.v.
Description: (§1) In addition to their use as psychostimulants, the compounds of formulas I and II-d are also useful as analgesic agents. […] For example, 2-(2-benzoylphenyl)-2-imidazoline in dogs at 4 mg/kg i.v. produced an increase in blood pressure of 10 mm. Hg after 2 minutes followed by gradual increase to 25 mm. Hg.

animals = test: analgesic properties in standard pharmacological tests in animals; format: in vivo; conditions: result in words
Description: as §1

## OC1(c2ccccc2)c2ccccc2C2=NCCCCN21 (centres unmarked) [Example 21, 2,3,4,5-tetrahydro-7-hydroxy-7-phenyl-7H-diazepino[2,1-a]isoindole]
LD50 of Example 21
  LD50: 40 mg/kg

## COc1ccc(C(=O)c2ccccc2C2=NCCN2)cc1 [Example 16, 2-[2'-(4-anisoyl)phenyl]-2-imidazoline]
mice
  test result compared with 2-(2-benzoylphenyl)-2-imidazoline: qualitatively similar to 2-(2-benzoylphenyl)-2-imidazoline

## O=C(c1ccc(Cl)cc1)c1ccccc1C1=NCCN1 [Example 15, 2-[2'-(4-chlorobenzoyl)phenyl]-2-imidazoline]
mice
  test result compared with 2-(2-benzoylphenyl)-2-imidazoline: qualitatively similar to 2-(2-benzoylphenyl)-2-imidazoline

## COC1(c2ccccc2)c2ccccc2C2=NCCN21 (centres unmarked) [2,3-dihydro-5-methoxy-5-phenyl-5H-imidazo[2,1-a]isoindole]
mice
  test result compared with 2-(2-benzoylphenyl)-2-imidazoline: qualitatively similar to 2-(2-benzoylphenyl)-2-imidazoline

## O=C(c1ccccc1)c1ccccc1C1=NCCN1 [Example 10, 2-(2-benzoylphenyl)-2-imidazoline]
[1]; ip
  LD50: 77 mg/kg
[1]; iv
  LD50: 37 mg/kg
[1]; po
  LD50: 200 mg/kg
[1]; sc
  LD50: 130 mg/kg
dogs; after 2 minutes
  increase in blood pressure: 10 mm. Hg
dogs; following the 2-minute value
  gradual increase in blood pressure: 25 mm. Hg
animals
  analgesic properties compared with phenylbutazone: can be likened to the analgesic properties of phenylbutazone
